We go through 1 compound from patent publication US10080812B2, “Radioactive iodine labeled pyrido[1,2-a]benzoimidazole derivative compound” (priority 2015, dated 2018).

The structures appear in SMILES notation.

Data set [1] in a line: Metabolite analysis in brain. The format is in vivo, ddY mouse. The settings on record: mouse brain, 2 min after i.v. administration. The method, then: A 5-week-old male ddY mouse was used as a normal mouse. [^123I]BIP-3 obtained by the method shown in Example 10, which was contained in saline containing 0.1 vol % Tween 80 and 10 vol % ethanol, was administered from the tail vein (3.70 MBq, […]). After 2 minutes, the mouse was slaughtered, and the brain was excised, homogenized in methanol (2.00 mL) and TBS (2.00 mL), and centrifuged at 4000×g at 4° C. for 10 minutes, followed by the collection of a supernatant. The obtained supernatant was passed through Cosmonice Filter (S) (0.45 μm, 4 mm) (Nacalai Tesque, Inc.) and analyzed by reverse phase HPLC. Analytical conditions for HPLC were the same as the conditions used in Example 9.

Data set [2] is described as follows: Metabolite analysis in blood. The format is in vivo, ddY mouse. The settings on record: i.v.; for Proportion of parent compound in blood: mouse plasma, mean±SD n=3. The method, then: A 5-week-old male ddY mouse was used as a normal mouse. [^123I]BIP-3 obtained by the method shown in Example 10, which was contained in saline containing 0.1 vol % Tween 80 and 10 vol % ethanol, was administered from the tail vein (3.70 MBq, 100 μL). 2 minutes, 10 minutes, or 30 minutes after administration, the mouse was slaughtered, and blood was collected into a test tube with an inner wall coated with Heparin Sodium Injection (manufactured by Nipro Pharma Corp.). After radioactivity measurement, the blood was centrifuged at 4000×g at 4° C. for 5 minutes and separated into plasma and cell components. To the obtained plasma, a 2-fold volume of methanol was added for protein denaturation, and the mixture was centrifuged at 4000×g at 4° C. for 5 minutes. The obtained supernatant was passed through Cosmonice Filter (S) (0.45 μm, 4 mm) (Nacalai Tesque, Inc.) and analyzed by reverse phase HPLC. Analytical conditions for HPLC were the same as the conditions used in Example 9.

On to `[123I]c1ccc2c(c1)nc1ccccn12` [[^123I]BIP-3, 7-[^123I]iodobenzo[4,5]imidazo[1,2-a]pyridine], for which the “metabolite analysis of brain homogenates (reverse phase HPLC)” value in data set [1] is on record as “only the signal peak of the parent compound was detected”. Also, the “Proportion of parent compound in blood” value is 83.1 ± 7.7 in data set [2] (2 min after administration), 23.6 ± 2.2 in data set [2] (10 min after administration) and 8.4 ± 1.1 in data set [2] (30 min after administration). Moreover, in data set [2] (mouse, HPLC of plasma), the “metabolite formation in blood” value is on record as “forms a highly water-soluble metabolite”.
